Tests used:
Format in all cases: in vivo
[1] = test system: broad-leaf weeds and grass weeds; assay: General screening of herbicidal activity in greenhouse; conditions: 1000 g a.i./hm^2;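 note: 0 means no visible effect and 100 means all weeds dead or not emerged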
Summary of the method: (§1)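 Pre- and post-emergence greenhouse test. Track sprayer, 500 L/hm^2, 1.95 kg/cm^2; EC formulation. Post-em at 2–3 leaves (grass), 2–4 leaves (broad-leaf). Readout: visual % inhibition.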

[2] = test system: Echinochloa crus-galli (L.) Beauv.; assay: Bioassay of herbicidal activity in greenhouse (further screening)
Summary of the method: as §1

[3] = test system: Setaria glauca (L.) Beauv.; assay: as above
Summary of the method: as §1

[4] = test system: Zinnia elegans Jacq.; assay: as above
Summary of the method: as §1

[5] = test system: Abutilon theophrasti Medic.; assay: as above
Summary of the method: as §1

COCCOC(=O)C1(C)CC(c2cc(-n3c(=O)cc(C(F)(F)F)n(C)c3=O)c(F)cc2Cl)=NO1 (stereo not shown) [Compound 16]
pre-emergence and post-emergence herbicidal activity against broad-leaf weeds and grass weeds [1]: good | Growth inhibition rate, Post-emergence treatment, Echinochloa crus-galli (L.) Beauv. ([2]; dose 7.5 g a.i./hm^2): 50% | Growth inhibition rate, Post-emergence treatment, Echinochloa crus-galli (L.) Beauv. ([2]; dose 15 g a.i./hm^2): 80% | Growth inhibition rate, Post-emergence treatment, Echinochloa crus-galli (L.) Beauv. ([2]; dose 30.0 g a.i./hm^2): 100% | Growth inhibition rate, Post-emergence treatment, Echinochloa crus-galli (L.) Beauv. ([2]; dose 60.0 g a.i./hm^2): 100% | Growth inhibition rate, Post-emergence treatment, Echinochloa crus-galli (L.) Beauv. ([2]; dose 120.0 g a.i./hm^2): 100% | Growth inhibition rate, Post-emergence treatment, Setaria glauca (L.) Beauv. ([3]; dose 7.5 g a.i./hm^2): 75% | Growth inhibition rate, Post-emergence treatment, Setaria glauca (L.) Beauv. ([3]; dose 15 g a.i./hm^2): 98% | Growth inhibition rate, Post-emergence treatment, Setaria glauca (L.) Beauv. ([3]; dose 30.0 g a.i./hm^2): 100% | Growth inhibition rate, Post-emergence treatment, Setaria glauca (L.) Beauv. ([3]; dose 60.0 g a.i./hm^2): 100% | Growth inhibition rate, Post-emergence treatment, Setaria glauca (L.) Beauv. ([3]; dose 120.0 g a.i./hm^2): 100% | Growth inhibition rate, Post-emergence treatment, Zinnia elegans Jacq. ([4]; dose 7.5 g a.i./hm^2): 98% | Growth inhibition rate, Post-emergence treatment, Zinnia elegans Jacq. ([4]; dose 15 g a.i./hm^2): 100% | Growth inhibition rate, Post-emergence treatment, Zinnia elegans Jacq. ([4]; dose 30.0 g a.i./hm^2): 100% | Growth inhibition rate, Post-emergence treatment, Zinnia elegans Jacq. ([4]; dose 60.0 g a.i./hm^2): 100% | Growth inhibition rate, Post-emergence treatment, Zinnia elegans Jacq. ([4]; dose 120.0 g a.i./hm^2): 100% | Growth inhibition rate, Post-emergence treatment, Abutilon theophrasti Medic. ([5]; dose 7.5 g a.i./hm^2): 75% | Growth inhibition rate, Post-emergence treatment, Abutilon theophrasti Medic. ([5]; dose 15 g a.i./hm^2): 98% | Growth inhibition rate, Post-emergence treatment, Abutilon theophrasti Medic. ([5]; dose 30.0 g a.i./hm^2): 100% | Growth inhibition rate, Post-emergence treatment, Abutilon theophrasti Medic. ([5]; dose 60.0 g a.i./hm^2): 100% | Growth inhibition rate, Post-emergence treatment, Abutilon theophrasti Medic. ([5]; dose 120.0 g a.i./hm^2): 100%

CC(C)OC(=O)C1(C)CC(c2cc(-n3c(=O)cc(C(F)(F)F)n(C)c3=O)c(F)cc2Cl)=NO1 (stereo not shown) [Compound 10]
pre-emergence and post-emergence herbicidal activity against broad-leaf weeds and grass weeds [1]: good | Growth inhibition rate, Post-emergence treatment, Echinochloa crus-galli (L.) Beauv. ([2]; dose 7.5 g a.i./hm^2): 90% | Growth inhibition rate, Post-emergence treatment, Echinochloa crus-galli (L.) Beauv. ([2]; dose 15 g a.i./hm^2): 98% | Growth inhibition rate, Post-emergence treatment, Echinochloa crus-galli (L.) Beauv. ([2]; dose 30.0 g a.i./hm^2): 100% | Growth inhibition rate, Post-emergence treatment, Echinochloa crus-galli (L.) Beauv. ([2]; dose 60.0 g a.i./hm^2): 100% | Growth inhibition rate, Post-emergence treatment, Echinochloa crus-galli (L.) Beauv. ([2]; dose 120.0 g a.i./hm^2): 100% | Growth inhibition rate, Post-emergence treatment, Setaria glauca (L.) Beauv. ([3]; dose 7.5 g a.i./hm^2): 90% | Growth inhibition rate, Post-emergence treatment, Setaria glauca (L.) Beauv. ([3]; dose 15 g a.i./hm^2): 100% | Growth inhibition rate, Post-emergence treatment, Setaria glauca (L.) Beauv. ([3]; dose 30.0 g a.i./hm^2): 100% | Growth inhibition rate, Post-emergence treatment, Setaria glauca (L.) Beauv. ([3]; dose 60.0 g a.i./hm^2): 100% | Growth inhibition rate, Post-emergence treatment, Setaria glauca (L.) Beauv. ([3]; dose 120.0 g a.i./hm^2): 100% | Growth inhibition rate, Post-emergence treatment, Zinnia elegans Jacq. ([4]; dose 7.5 g a.i./hm^2): 100% | Growth inhibition rate, Post-emergence treatment, Zinnia elegans Jacq. ([4]; dose 15 g a.i./hm^2): 100% | Growth inhibition rate, Post-emergence treatment, Zinnia elegans Jacq. ([4]; dose 30.0 g a.i./hm^2): 100% | Growth inhibition rate, Post-emergence treatment, Zinnia elegans Jacq. ([4]; dose 60.0 g a.i./hm^2): 100% | Growth inhibition rate, Post-emergence treatment, Zinnia elegans Jacq. ([4]; dose 120.0 g a.i./hm^2): 100% | Growth inhibition rate, Post-emergence treatment, Abutilon theophrasti Medic. ([5]; dose 7.5 g a.i./hm^2): 100% | Growth inhibition rate, Post-emergence treatment, Abutilon theophrasti Medic. ([5]; dose 15 g a.i./hm^2): 100% | Growth inhibition rate, Post-emergence treatment, Abutilon theophrasti Medic. ([5]; dose 30.0 g a.i./hm^2): 100% | Growth inhibition rate, Post-emergence treatment, Abutilon theophrasti Medic. ([5]; dose 60.0 g a.i./hm^2): 100% | Growth inhibition rate, Post-emergence treatment, Abutilon theophrasti Medic. ([5]; dose 120.0 g a.i./hm^2): 100%

Cn1c(C(F)(F)F)cc(=O)n(-c2cc(C3=NOC(C)(C(=O)O)C3)c(Cl)cc2F)c1=O (stereo not shown) [Compound 4]
pre-emergence and post-emergence herbicidal activity against broad-leaf weeds and grass weeds [1]: good | Growth inhibition rate, Post-emergence treatment, Echinochloa crus-galli (L.) Beauv. ([2]; dose 37.5 g a.i./hm^2): 15% | Growth inhibition rate, Post-emergence treatment, Echinochloa crus-galli (L.) Beauv. ([2]; dose 150 g a.i./hm^2): 25% | Growth inhibition rate, Post-emergence treatment, Echinochloa crus-galli (L.) Beauv. ([2]; dose 600 g a.i./hm^2): 85% | Growth inhibition rate, Pre-emergence treatment, Echinochloa crus-galli (L.) Beauv. ([2]; dose 37.5 g a.i./hm^2): 0% | Growth inhibition rate, Pre-emergence treatment, Echinochloa crus-galli (L.) Beauv. ([2]; dose 150 g a.i./hm^2): 0% | Growth inhibition rate, Pre-emergence treatment, Echinochloa crus-galli (L.) Beauv. ([2]; dose 600 g a.i./hm^2): 10% | Growth inhibition rate, Post-emergence treatment, Setaria glauca (L.) Beauv. ([3]; dose 37.5 g a.i./hm^2): 20% | Growth inhibition rate, Post-emergence treatment, Setaria glauca (L.) Beauv. ([3]; dose 150 g a.i./hm^2): 70% | Growth inhibition rate, Post-emergence treatment, Setaria glauca (L.) Beauv. ([3]; dose 600 g a.i./hm^2): 100% | Growth inhibition rate, Pre-emergence treatment, Setaria glauca (L.) Beauv. ([3]; dose 37.5 g a.i./hm^2): 0% | Growth inhibition rate, Pre-emergence treatment, Setaria glauca (L.) Beauv. ([3]; dose 150 g a.i./hm^2): 5% | Growth inhibition rate, Pre-emergence treatment, Setaria glauca (L.) Beauv. ([3]; dose 600 g a.i./hm^2): 30% | Growth inhibition rate, Post-emergence treatment, Zinnia elegans Jacq. ([4]; dose 37.5 g a.i./hm^2): 95% | Growth inhibition rate, Post-emergence treatment, Zinnia elegans Jacq. ([4]; dose 150 g a.i./hm^2): 100% | Growth inhibition rate, Post-emergence treatment, Zinnia elegans Jacq. ([4]; dose 600 g a.i./hm^2): 100% | Growth inhibition rate, Pre-emergence treatment, Zinnia elegans Jacq. ([4]; dose 37.5 g a.i./hm^2): 0% | Growth inhibition rate, Pre-emergence treatment, Zinnia elegans Jacq. ([4]; dose 150 g a.i./hm^2): 5% | Growth inhibition rate, Pre-emergence treatment, Zinnia elegans Jacq. ([4]; dose 600 g a.i./hm^2): 20% | Growth inhibition rate, Post-emergence treatment, Abutilon theophrasti Medic. ([5]; dose 37.5 g a.i./hm^2): 50% | Growth inhibition rate, Post-emergence treatment, Abutilon theophrasti Medic. ([5]; dose 150 g a.i./hm^2): 98% | Growth inhibition rate, Post-emergence treatment, Abutilon theophrasti Medic. ([5]; dose 600 g a.i./hm^2): 98% | Growth inhibition rate, Pre-emergence treatment, Abutilon theophrasti Medic. ([5]; dose 37.5 g a.i./hm^2): 10% | Growth inhibition rate, Pre-emergence treatment, Abutilon theophrasti Medic. ([5]; dose 150 g a.i./hm^2): 15% | Growth inhibition rate, Pre-emergence treatment, Abutilon theophrasti Medic. ([5]; dose 600 g a.i./hm^2): 40%

Reference: patent US10550111B2, “Pyrimidine urea compound containing isoxazolines and use thereof” (SHENYANG SINOCHEM AGROCHEMICALS R&D CO., LTD, priority 2014, dated 2020)
